These are literature values, as cited in patent US20130202712A1, “Compositions And Methods For Treating Or Preventing Immuno-Inflammatory Disease” (VINDICO NANOBIO TECHNOLOGY, INC., priority 2010, published 2013).

For the data set the following is noted: free resveratrol.

On to `Oc1ccc(C=Cc2cc(O)cc(O)c2)cc1` [resveratrol, 3,5,4′-trihydroxystilbene], for which the Solubility in water entry is listed as “very low solubility in water”.
